{"source": "paper PMC6030159", "about": "(Scientific Reports, 2018)", "key": {"BCL-XL": {"system": "T1, BCL-XL", "T1 construct": "purchased Abcam", "test": "MST binding to BCL-XL", "details": "3 µM MYCMI-6, BCL-XL titrated up to 10 μM", "protocol": "MST was carried out on a Monolith NT.115 with blue/green filters, kindly provided by Luca Jovine, Karolinska Institutet Huddinge, according to manufacturer's protocol (NanoTemper). […] Titration of molecules was carried out in 16 PCR tubes into which a fixed concentration of fluorescent molecule was added. The mixture was applied to capillaries (standard treated, NanoTemper), and scanned in the Monolith NT.115 to measure initial fluorescence of molecule. MST was induced and fluorescence was measured during 40 seconds. Double measurements were carried out (MST power of 20% and 40%, or 40% and 60%) for each sample. Delta fluorescence or relative fluorescence of fluorescent molecule normalized to control vehicle was plotted against titrated molecule concentration. The protein labeling kit GREEN-NHS (NanoTemper) was used to label primary amines of proteins according to manufacture's protocol. page 5: Supplementary Figure Legends Supplemental Figure S1. Schematic presentations of MYC and MAX protein constructs. […] The cells were reseeded and treated with vehicle or 25 μM of each compound, after which fluorescence was measured 24 hours post-treatment and the YFP/CFP ratio calculated and normalized to DMSO-treated cells. […] (12.5 μM) and analyzed as described in C). […]"}, "[1]": {"system": "TGR-1 (wt) Rat1 fibroblasts", "test": "WST-1 growth assay, TGR-1 (wt) Rat1 fibroblasts", "format": "cell-based, rat", "protocol": "Cell proliferation assays. Cell growth and viability was estimated in triplicates with WST-1\n(Roche) or Resazurin sodium salt (Sigma-Aldrich) assays in medium at 37°C and 5% CO 2 for\n2 hours after which absorbance or fluorescence, respectively, was measured with an Omega\nFluostar (BMG Labtech) in a 96 well plate format. […]\n(§1) 0.7% agarose. […]"}, "[2]": {"system": "MYCN-amplified SK-N-DZ neuroblastoma cells", "test": "Viable/dead cell counting, SK-N-DZ", "format": "cell-based, human", "details": "12.5 μM, 24 hours", "protocol": "Cell proliferation assays. […]\nFluostar (BMG Labtech) in a 96 well plate format. Cell counting was done in 96 well plates with CellTracker Green (ThermoFisher) for 30 min in the incubator, after which DAPI was added for 5 min. Images were taken in the green (FITC) and blue (DAPI) channels using a fluorescence microscope (ImageXpress Micro, Molecular Devices). […]\nas §1"}, "[3]": {"biological_target": "S-adenosylmethionine decarboxylase (AdoMetDC)", "set-up": "method as in PMID 17676832", "details": "cited from earlier work"}, "p53": {"system": "p53", "set-up": "method as in PMID 19202599", "details": "cited from earlier work"}, "lung tumor": {"system": "lung tumor", "set-up": "method as in PMID 23824742", "details": "cited from earlier work"}}, "note": "“Also recorded” adds a separate entry of the source.", "data": [{"smiles": "CCOc1ccc2nc3cc(/N=N/c4ccc(N)nc4N)ccc3c(N)c2c1", "note": "[MYCMI-6]", "values": [{"measurement": "binding to BCL-XL (MST)", "setting": "BCL-XL", "value": "did not bind; also recorded: did not observe any binding"}, {"measurement": "growth of wt (TGR-1) cells", "setting": "[1]", "value": "strongly inhibited growth"}, {"measurement": "cell death and cell number, SK-N-DZ", "setting": "[2]", "value": "dramatically increased cell death and reduced cell number; also recorded: killed almost 100%"}, {"measurement": "IC50 for AdoMetDC relative to MYC:MAX in vitro", "setting": "[3]", "value": "approximately 10 fold"}, {"measurement": "concentrations causing increased expression of p53 in cells", "setting": "p53", "value": "≥ 5", "unit": "µM"}, {"measurement": "lung tumor growth in mouse xenograft model", "setting": "lung tumor", "value": "inhibit lung tumor growth"}]}]}
